Experimental data published in PubChem BioAssay (NCI).
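These data come from cells grown in 96-well plates and exposed to compound for 48 hours at five concentrations. GI50 = concentration required for 50% inhibition of growth. The concentration for full growth arrest is given as TGI.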

Columns and labels:
Assay in all cases: NCI-60 cell line screen, 48 h
ACHN renal = tested on: ACHN renal
EKVX NSCLC = tested on: EKVX NSCLC
NCI-H460 lung = tested on: NCI-H460 lung
SN12C renal = tested on: SN12C renal
TK-10 renal = tested on: TK-10 renal
U251 CNS = tested on: U251 CNS
HL-60(TB) leukemia = tested on: HL-60(TB) leukemia
MALME-3M melanoma = tested on: MALME-3M melanoma
UACC-257 melanoma = tested on: UACC-257 melanoma
UACC-62 melanoma = tested on: UACC-62 melanoma

## COc1ccc(-c2csc(NC(=O)N3CCN(c4cc5c(cc4F)c(=O)c(C(=O)O)cn5C4CC4)CC3)n2)cc1
ACHN renal
  GI50: 2.66 µM
  TGI: > 100 µM
EKVX NSCLC
  GI50: 3.11 µM
  TGI: > 100 µM
NCI-H460 lung
  GI50: 1290 nM
  TGI: > 100 µM
SN12C renal
  GI50: 1.49 µM
  TGI: > 100 µM
TK-10 renal
  GI50: 6.93 µM
  TGI: 37 µM
U251 CNS
  GI50: 660 nM
  TGI: 16.8 µM

## C[Si](C)(C)/C=C\CCCN1C(=O)CCC1=O
ACHN renal
  TGI: > 100 µM
EKVX NSCLC
  TGI: > 100 µM
HL-60(TB) leukemia
  TGI: > 100 µM
MALME-3M melanoma
  TGI: > 100 µM
NCI-H460 lung
  TGI: > 100 µM
SN12C renal
  TGI: > 100 µM
TK-10 renal
  TGI: > 100 µM
U251 CNS
  TGI: > 100 µM
UACC-257 melanoma
  TGI: > 100 µM
UACC-62 melanoma
  TGI: > 100 µM

## CC(C)Cc1ccc(C(C)/C=C2\CCC(CN3CCCC3)C2=O)cc1 (stereo not drawn)
ACHN renal
  TGI: 24.3 µM
EKVX NSCLC
  TGI: 33.3 µM
HL-60(TB) leukemia
  TGI: > 100 µM
MALME-3M melanoma
  TGI: 36.1 µM
NCI-H460 lung
  TGI: 37.9 µM
SN12C renal
  TGI: 13.3 µM
TK-10 renal
  TGI: 9.92 µM
U251 CNS
  TGI: 17.9 µM
UACC-257 melanoma
  TGI: 31.1 µM
UACC-62 melanoma
  TGI: 31.2 µM

## N/C(=N\c1nc2ccccc2s1)NC(=O)Nc1ccccc1Cl
ACHN renal
  GI50: 0.227 µM
  TGI: 7.17 µM
EKVX NSCLC
  GI50: 0.427 µM
  TGI: > 100 µM
HL-60(TB) leukemia
  GI50: 82 nM
  TGI: 0.688 µM
MALME-3M melanoma
  GI50: 667 nM
  TGI: 13.2 µM
NCI-H460 lung
  GI50: 149 nM
  TGI: 10.4 µM
SN12C renal
  GI50: 0.916 µM
  TGI: > 50.1 µM
TK-10 renal
  GI50: 4.11 µM
  TGI: 18.7 µM
U251 CNS
  GI50: 122 nM
  TGI: 5.57 µM
UACC-257 melanoma
  GI50: 18.6 µM
  TGI: > 100 µM
UACC-62 melanoma
  GI50: 0.125 µM
  TGI: > 78.9 µM

## COc1ccc(C(=O)C(Br)C(Br)C(=O)O)cc1 (stereo not drawn)
ACHN renal
  TGI: > 100 µM
EKVX NSCLC
  TGI: > 100 µM
MALME-3M melanoma
  TGI: 46.2 µM
NCI-H460 lung
  TGI: > 100 µM
SN12C renal
  TGI: > 100 µM
TK-10 renal
  TGI: > 100 µM
U251 CNS
  TGI: > 100 µM
UACC-257 melanoma
  TGI: > 100 µM
UACC-62 melanoma
  TGI: > 100 µM

## COC1OC(CBr)C(OC(c2ccccc2)(c2ccccc2)c2ccccc2)C(OC(c2ccccc2)(c2ccccc2)c2ccccc2)C1OC(c1ccccc1)(c1ccccc1)c1ccccc1 (stereo not drawn)
ACHN renal
  TGI: > 100 µM
EKVX NSCLC
  TGI: 70.2 µM
HL-60(TB) leukemia
  TGI: > 100 µM
MALME-3M melanoma
  TGI: > 100 µM
NCI-H460 lung
  TGI: > 100 µM
SN12C renal
  TGI: > 100 µM
TK-10 renal
  TGI: > 100 µM
UACC-257 melanoma
  TGI: > 100 µM
UACC-62 melanoma
  TGI: > 100 µM

## S=P(c1ccccc1)(c1ccccc1)C1(C2(P(=S)(c3ccccc3)c3ccccc3)CC2)CC1
ACHN renal
  TGI: > 100 µM
EKVX NSCLC
  TGI: > 100 µM
NCI-H460 lung
  TGI: > 100 µM
SN12C renal
  TGI: > 100 µM
TK-10 renal
  TGI: > 100 µM
U251 CNS
  TGI: > 100 µM
UACC-62 melanoma
  TGI: > 100 µM

## O=C(O)CCSC(=O)Nc1cccc([N+](=O)[O-])c1
ACHN renal
  TGI: > 100 µM
EKVX NSCLC
  TGI: > 100 µM
HL-60(TB) leukemia
  TGI: > 100 µM
NCI-H460 lung
  TGI: > 100 µM
SN12C renal
  TGI: > 100 µM
TK-10 renal
  TGI: > 100 µM
U251 CNS
  TGI: > 100 µM
UACC-257 melanoma
  TGI: > 100 µM

## O=C(COc1ccc(Cl)cc1)N1N=C(c2ccc([N+](=O)[O-])o2)CC1(O)c1ccccc1 (stereo not drawn)
HL-60(TB) leukemia
  TGI: 12 µM
MALME-3M melanoma
  TGI: 23.4 µM
NCI-H460 lung
  TGI: 23.1 µM
SN12C renal
  TGI: 15.8 µM
TK-10 renal
  TGI: 20.6 µM
U251 CNS
  TGI: 15.5 µM
UACC-257 melanoma
  TGI: 15.6 µM
UACC-62 melanoma
  TGI: 19.7 µM

## Cc1[nH]c2ccccc2c1C1CC(=O)NC1=O (stereo not drawn)
ACHN renal
  TGI: > 100 µM
EKVX NSCLC
  TGI: > 100 µM
HL-60(TB) leukemia
  TGI: > 100 µM
MALME-3M melanoma
  TGI: > 100 µM
NCI-H460 lung
  TGI: > 100 µM
TK-10 renal
  TGI: > 100 µM
U251 CNS
  TGI: > 100 µM
UACC-257 melanoma
  TGI: > 100 µM
UACC-62 melanoma
  TGI: > 100 µM

## N=C1C(c2nc3ccccc3s2)=C(O)CN1c1ccc(Cl)cc1Cl
ACHN renal
  GI50: 13 µM
  TGI: 28.8 µM
EKVX NSCLC
  GI50: 29.9 µM
  TGI: 85.5 µM
HL-60(TB) leukemia
  GI50: 41900 nM
  TGI: > 100 µM
NCI-H460 lung
  GI50: 33400 nM
  TGI: > 100 µM
SN12C renal
  GI50: 13.5 µM
  TGI: 32.4 µM
TK-10 renal
  GI50: 14.4 µM
  TGI: 42.8 µM
U251 CNS
  GI50: 10100 nM
  TGI: 29.9 µM
UACC-257 melanoma
  GI50: 7 µM
  TGI: 45.3 µM
UACC-62 melanoma
  GI50: 12 µM
  TGI: 52.9 µM

## O=C1C(Cl)=C(Nc2cccc(O)c2)C(=O)N1c1cccc(Cl)c1
ACHN renal
  GI50: 85.4 µM
  TGI: > 100 µM
EKVX NSCLC
  GI50: > 100 µM
  TGI: > 100 µM
MALME-3M melanoma
  GI50: 51700 nM
  TGI: > 100 µM
NCI-H460 lung
  GI50: 48500 nM
  TGI: > 100 µM
SN12C renal
  GI50: 21.9 µM
  TGI: 59.8 µM
TK-10 renal
  GI50: > 100 µM
  TGI: > 100 µM
U251 CNS
  GI50: 57700 nM
  TGI: > 100 µM
UACC-62 melanoma
  GI50: 27 µM
  TGI: > 100 µM

## NNC(=O)CCC(=O)Nc1ccc(Cl)cc1Cl
ACHN renal
  TGI: > 100 µM
HL-60(TB) leukemia
  TGI: > 100 µM
MALME-3M melanoma
  TGI: > 100 µM
NCI-H460 lung
  TGI: > 100 µM
SN12C renal
  TGI: > 100 µM
TK-10 renal
  TGI: > 100 µM
U251 CNS
  TGI: > 100 µM
UACC-257 melanoma
  TGI: > 100 µM
UACC-62 melanoma
  TGI: > 100 µM

## COc1cc2ccc(/C(C)=N/OC(C)=O)cc2cc1OC
ACHN renal
  TGI: > 100 µM
EKVX NSCLC
  TGI: > 100 µM
MALME-3M melanoma
  TGI: > 100 µM
NCI-H460 lung
  TGI: > 100 µM
SN12C renal
  TGI: > 100 µM
TK-10 renal
  TGI: > 100 µM
U251 CNS
  TGI: > 100 µM
UACC-257 melanoma
  TGI: > 100 µM
UACC-62 melanoma
  TGI: > 100 µM

## COc1cc2c(=O)n(CCCn3ccnc3)c3c4cc5c(cc4ccc3c2cc1OC)OCO5
ACHN renal
  GI50: 0.278 µM
  TGI: 1.36 µM
EKVX NSCLC
  GI50: 9.72 µM
  TGI: > 100 µM
MALME-3M melanoma
  GI50: 2020 nM
  TGI: > 100 µM
NCI-H460 lung
  GI50: 293 nM
  TGI: > 100 µM
SN12C renal
  GI50: 0.635 µM
  TGI: > 100 µM
TK-10 renal
  GI50: 36 µM
  TGI: > 100 µM
U251 CNS
  GI50: 393 nM
  TGI: 15.8 µM

## Cc1ccc2c(N/N=C\c3ccco3)cc(C)nc2n1
ACHN renal
  GI50: 3.37 µM
  TGI: 12.4 µM
HL-60(TB) leukemia
  GI50: 1990 nM
  TGI: 4.07 µM
NCI-H460 lung
  GI50: 3240 nM
  TGI: 11.8 µM
SN12C renal
  GI50: 4.68 µM
  TGI: 16.5 µM
U251 CNS
  GI50: 1940 nM
  TGI: 7.06 µM
UACC-257 melanoma
  GI50: 2.79 µM
  TGI: 8.72 µM
UACC-62 melanoma
  GI50: 1.81 µM
  TGI: 3.69 µM

## CC(=O)NC1C(OCc2ccccc2)OC(COC(=O)CCCCCNc2ccc([N+](=O)[O-])c3[nH]c4ccc(O)cc4c(=O)c23)C(O)C1OC(C)C(=O)N[C@@H](C)C(=O)N[C@H](CCC(=O)OCc1ccccc1)C(N)=O (stereo partly drawn)
ACHN renal
  TGI: 34.5 µM
EKVX NSCLC
  TGI: 17.3 µM
HL-60(TB) leukemia
  TGI: > 52.2 µM
MALME-3M melanoma
  TGI: 2.87 µM
NCI-H460 lung
  TGI: 4.33 µM
SN12C renal
  TGI: 18.7 µM
U251 CNS
  TGI: 7.04 µM
UACC-257 melanoma
  TGI: 6.38 µM
UACC-62 melanoma
  TGI: 4.27 µM

## CC1=C(/C=C/C2=CC(=C\C(=O)O)/CC(C3=C(C)CCCC3(C)C)C2)C(C)(C)CCC1 (stereo not drawn)
ACHN renal
  TGI: 22.2 µM
EKVX NSCLC
  TGI: 23.4 µM
MALME-3M melanoma
  TGI: 34.1 µM
NCI-H460 lung
  TGI: 27.8 µM
SN12C renal
  TGI: 32.3 µM
TK-10 renal
  TGI: 27.3 µM
U251 CNS
  TGI: 23.1 µM
UACC-257 melanoma
  TGI: 29.5 µM
UACC-62 melanoma
  TGI: 23.1 µM

## O=C(c1cc2c(C(F)(F)F)onc2c2ccccc12)C(F)(F)F
ACHN renal
  TGI: 14 µM
EKVX NSCLC
  TGI: > 33.3 µM
HL-60(TB) leukemia
  TGI: 6.86 µM
NCI-H460 lung
  TGI: 7.17 µM
SN12C renal
  TGI: 7.85 µM
TK-10 renal
  TGI: 42.2 µM
U251 CNS
  TGI: 4.76 µM
UACC-257 melanoma
  TGI: 47.5 µM
UACC-62 melanoma
  TGI: 17 µM

## CC(C(=O)c1ccccc1)C1(O)C(=O)Nc2ccccc21 (stereo not drawn)
ACHN renal
  TGI: > 100 µM
EKVX NSCLC
  TGI: > 100 µM
MALME-3M melanoma
  TGI: > 100 µM
NCI-H460 lung
  TGI: > 100 µM
SN12C renal
  TGI: > 100 µM
TK-10 renal
  TGI: > 100 µM
U251 CNS
  TGI: > 100 µM
UACC-257 melanoma
  TGI: > 100 µM
UACC-62 melanoma
  TGI: > 100 µM
